According to patent US20150284385A1, “CERTAIN DIPEPTIDYL PEPTIDASE INHIBITORS” (SHANGHAI FOCHON PHARMACEUTICAL CO LTD, priority 2012, published 2015):
Read-outs that look alike come from different tables or passages of the source.

How the values were obtained:
Recombinant human DPP-IV = Recombinant human DPP-IV (Homo sapiens, UniProt P27487); experiment: DPP-IV assay in vitro (H-Ala-Pro-AFC fluorescence); assay type: biochemical; conditions: 30 min pre-incubation, H-Ala-Pro-AFC 50 μM
Method: DPP-IV Assay Solutions of test compounds in varying concentrations (10^−5 mol/L, 10^−6 mol/L, 10^−7 mol/L, 10^−8 mol/L, 10^−9 mol/L, 10^−10 mol/L, 10^−11 mol/L, and 10^−12 mol/L) were prepared in dimethyl sulfoxide (DMSO) and then diluted into assay buffer comprising: 10 mM Tris-HCl pH 8.0, 0.2 M NaCl, and 0.1% BSA. Recombinant human DPP-IV (7.8 ng/ml final concentration) was added to the dilutions and pre-incubated for 30 mins at room temperature before the reaction was initiated with H-Ala-Pro-AFC (50 μM final concentration). The total volume of the reaction mixture was 100 μl.
Inhibition constants (IC50) were calculated by GraphPad Prism.

DPP-4 = molecular target: T1, DPP-4 (Mus musculus, UniProt P28843); experiment: Plasma DPP-4 activity in mice after oral dosing; assay type: in vivo, ICR mice; conditions: read-out: DPP-4 Relative activity %; for activity at 1 mg/kg: oral 1 mg/kg; for activity at 3 mg/kg: mice plasma, oral 3 mg/kg
T1 construct: Blood sample was processed to obtain plasma; from tissue; host or cells: plasma of male ICR mice
Method: Some of the exemplary compounds were tested in mice to assess inhibition of DPP-4 activity via plasma DPP-4 activity. Male ICR mice (25-30 g) were used for this study. All the mice were fasted at least 3 hours before study. Mice (n=6/group) received vehicle or at least one of the exemplary compounds by oral gavage. The dosing solutions were 0.15 mg/ml for the 3 mg/kg. Dosing volume was 20 mL/kg of body weight for all doses. The vehicle was distilled water. […] Blood sample was processed to obtain plasma (2000 g, 5 min, 4° C.) within 15 min after sampling.
Plasma was collected and tested by fluoremetry. Before the testing, 80 mM MgCl2 buffer was added into the 5 uL serum samples and pre-incubation for 5 minutes at room temperature, then […] of 0.1 mM substrate Gly-Pro-AMC and 20 μL of buffer were added into them. The fluorescence of the mixture was measured every 3 minutes after mixing (excitation at 380 nm; emission at 460 nm). After 6 times of measurements, a time-fluorescence cure was obtained. The slope of the curve would be the activity of DPP-4 in serum. The DPP-4 activity before administration was 100%. The relative activity of DPP-4 in serum was calculated using the formula below:
Relative DPP-4activity=DPP-4activity after dosing/DPP-4activity before dosing×100%.

[1] = Table 4 Test 3, mice plasma, 1 h after dosing
[2] = Table 4 Test 3, mice plasma, 2 h after dosing
[3] = Table 4 Test 3, mice plasma, 4 h after dosing
[4] = Table 4 Test 3, mice plasma, 6 h after dosing
[5] = Table 4 Test 3, mice plasma, 9 h after dosing
[6] = Table 4 Test 3, mice plasma, 12 h after dosing
[7] = Table 4 Test 3, mice plasma, 24 h after dosing
[8] = Table 4 Test 2, mice plasma, 1 h after dosing
[9] = Table 4 Test 2, mice plasma, 2 h after dosing
[10] = Table 4 Test 2, mice plasma, 4 h after dosing
[11] = Table 4 Test 2, mice plasma, 6 h after dosing
[12] = Table 4 Test 2, mice plasma, 9 h after dosing
[13] = Table 4 Test 2, mice plasma, 24 h after dosing
[14] = Table 3, mice plasma, 1 h after dosing
[15] = Table 3, mice plasma, 2 h after dosing
[16] = Table 3, mice plasma, 4 h after dosing
[17] = Table 3, mice plasma, 6 h after dosing
[18] = Table 3, mice plasma, 9 h after dosing
[19] = Table 3, mice plasma, 12 h after dosing
[20] = Table 3, mice plasma, 24 h after dosing

T1 sequence (P28843 37-760 limits assumed): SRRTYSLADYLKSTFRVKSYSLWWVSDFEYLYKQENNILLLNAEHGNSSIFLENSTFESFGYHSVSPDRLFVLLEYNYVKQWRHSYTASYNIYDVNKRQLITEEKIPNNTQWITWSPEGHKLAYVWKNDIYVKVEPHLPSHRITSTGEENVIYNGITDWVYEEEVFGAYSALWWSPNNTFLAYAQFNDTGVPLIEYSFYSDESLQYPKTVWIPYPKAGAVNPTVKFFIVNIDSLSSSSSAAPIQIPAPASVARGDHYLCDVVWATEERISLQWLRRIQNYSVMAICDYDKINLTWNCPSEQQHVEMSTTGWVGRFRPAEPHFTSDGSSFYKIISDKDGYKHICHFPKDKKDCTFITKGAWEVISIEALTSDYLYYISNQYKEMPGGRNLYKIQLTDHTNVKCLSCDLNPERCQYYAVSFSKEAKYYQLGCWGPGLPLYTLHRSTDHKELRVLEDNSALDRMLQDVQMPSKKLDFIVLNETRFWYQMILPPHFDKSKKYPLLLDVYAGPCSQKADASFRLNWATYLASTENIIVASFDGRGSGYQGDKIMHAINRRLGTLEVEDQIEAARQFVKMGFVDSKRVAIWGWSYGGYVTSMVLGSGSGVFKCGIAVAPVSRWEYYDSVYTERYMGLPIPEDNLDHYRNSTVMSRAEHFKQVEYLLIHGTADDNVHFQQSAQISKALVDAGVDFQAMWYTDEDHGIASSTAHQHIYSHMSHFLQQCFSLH
Recombinant human DPP-IV, sequence (P27487 whole entry): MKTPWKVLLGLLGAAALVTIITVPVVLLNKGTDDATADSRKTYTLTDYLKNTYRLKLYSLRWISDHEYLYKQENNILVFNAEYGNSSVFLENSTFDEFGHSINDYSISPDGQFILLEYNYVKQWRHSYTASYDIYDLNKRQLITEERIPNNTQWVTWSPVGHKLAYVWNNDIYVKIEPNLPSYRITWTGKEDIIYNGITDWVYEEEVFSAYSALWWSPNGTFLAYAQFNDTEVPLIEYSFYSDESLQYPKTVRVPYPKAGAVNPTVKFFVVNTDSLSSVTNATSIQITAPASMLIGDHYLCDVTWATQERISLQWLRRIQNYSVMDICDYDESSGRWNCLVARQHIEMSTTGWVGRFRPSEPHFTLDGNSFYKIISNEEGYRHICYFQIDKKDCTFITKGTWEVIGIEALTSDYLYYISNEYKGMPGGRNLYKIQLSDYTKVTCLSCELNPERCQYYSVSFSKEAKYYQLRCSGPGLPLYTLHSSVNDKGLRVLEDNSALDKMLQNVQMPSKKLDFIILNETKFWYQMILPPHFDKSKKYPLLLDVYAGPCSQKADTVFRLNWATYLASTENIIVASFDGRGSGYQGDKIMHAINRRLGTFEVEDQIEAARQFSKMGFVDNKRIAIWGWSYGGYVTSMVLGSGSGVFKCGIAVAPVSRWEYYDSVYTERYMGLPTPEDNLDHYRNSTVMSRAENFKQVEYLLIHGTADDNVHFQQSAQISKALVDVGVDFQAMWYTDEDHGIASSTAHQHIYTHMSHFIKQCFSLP

N[C@H]1Cc2c(nc3cc(-c4nnco4)ccn23)C[C@@H]1c1cc(F)c(F)cc1F [Example 1, (7R,8S)-3-(1,3,4-Oxadiazol-2-yl)-7-(2,4,5-trifluorophenyl)-6,7,8,9-tetrahydrobenzo[4,5]imidazo[1,2-a]pyridine-8-amine]
IC50 (Recombinant human DPP-IV): 0.8 nM
activity at 1 mg/kg (DPP-4; [1]): 11.9 ± 1.2%
activity at 1 mg/kg (DPP-4; [2]): 7.4 ± 1%
activity at 1 mg/kg (DPP-4; [3]): 8.6 ± 0.8%
activity at 1 mg/kg (DPP-4; [4]): 8.4 ± 1.3%
activity at 1 mg/kg (DPP-4; [5]): 9 ± 1.2%
activity at 1 mg/kg (DPP-4; [6]): 8.8 ± 0.9%
activity at 1 mg/kg (DPP-4; [7]): 14.4 ± 1.8%
activity at 3 mg/kg (DPP-4; 1 h after dosing): 38.7 ± 4.2%
activity at 3 mg/kg (DPP-4; 2 h after dosing): 34.9 ± 3%
activity at 3 mg/kg (DPP-4; 3 h after dosing): 31.2 ± 2.3%
activity at 3 mg/kg (DPP-4; 5 h after dosing): 39.2 ± 3.3%

Cc1nnc(-c2ccn3c4c(nc3c2)C[C@H](c2cc(F)c(F)cc2F)[C@@H](N)C4)o1 [Example 2, (7R,8S)-3-(5-Methyl-1,3,4-oxadiazol-2-yl)-7-(2,4,5-trifluorophenyl)-6,7,8,9-tetrahydrobenzo[4,5]imidazo[1,2-a]pyridin-8-amine]
IC50 (Recombinant human DPP-IV): 1.2 nM
activity at 1 mg/kg (DPP-4; [8]): 9.4 ± 1.8%
activity at 1 mg/kg (DPP-4; [9]): 11.6 ± 2%
activity at 1 mg/kg (DPP-4; [10]): 7.7 ± 2.1%
activity at 1 mg/kg (DPP-4; [11]): 9.6 ± 1.3%
activity at 1 mg/kg (DPP-4; [12]): 7.8 ± 2.7%
activity at 1 mg/kg (DPP-4; [13]): 16.4 ± 3.7%
activity at 3 mg/kg (DPP-4; 1 h after dosing): 17 ± 3.3%
activity at 3 mg/kg (DPP-4; 2 h after dosing): 22.6 ± 3.1%
activity at 3 mg/kg (DPP-4; 3 h after dosing): 22.6 ± 1.1%
activity at 3 mg/kg (DPP-4; 5 h after dosing): 25.9 ± 3.8%

N[C@H]1Cc2c(nc3cc(-c4ncon4)ccn23)C[C@@H]1c1cc(F)c(F)cc1F [Example 3, (7R,8S)-3-(1,2,4-Oxadiazol-3-yl)-7-(2,4,5-trifluorophenyl)-6,7,8,9-tetrahydrobenzo[4,5]imidazo[1,2-a]pyridine-8-amine]
IC50 (Recombinant human DPP-IV): 1.7 nM
activity at 1 mg/kg (DPP-4; [8]): 15 ± 0.6%
activity at 1 mg/kg (DPP-4; [9]): 13.6 ± 1.7%
activity at 1 mg/kg (DPP-4; [10]): 8.6 ± 1.1%
activity at 1 mg/kg (DPP-4; [11]): 13.8 ± 2.4%
activity at 1 mg/kg (DPP-4; [12]): 11.8 ± 2.4%
activity at 1 mg/kg (DPP-4; Table 4 Test 2, mice plasma, 12 h after dosing): 15.6 ± 2.4%
activity at 1 mg/kg (DPP-4; [13]): 38.4 ± 4.3%
activity at 3 mg/kg (DPP-4; 1 h after dosing): 16 ± 2.3%
activity at 3 mg/kg (DPP-4; 2 h after dosing): 15 ± 3%
activity at 3 mg/kg (DPP-4; 3 h after dosing): 20 ± 1.8%
activity at 3 mg/kg (DPP-4; 5 h after dosing): 26.5 ± 3.5%

N[C@H]1Cc2c(nc3cc(-c4ncno4)ccn23)C[C@@H]1c1cc(F)c(F)cc1F [Example 5, (7R,8S)-3-(1,2,4-Oxadiazol-5-yl)-7-(2,4,5-trifluorophenyl)-6,7,8,9-tetrahydrobenzo[4,5]imidazo[1,2-a]pyridine-8-amine]
IC50 (Recombinant human DPP-IV): 1 nM

N[C@H]1Cc2c(nc3cc(-c4nc[nH]n4)ccn23)C[C@@H]1c1cc(F)c(F)cc1F [Example 7, (7R,8S)-3-(1H-1,2,4-Triazol-3-yl)-7-(2,4,5-trifluorophenyl)-6,7,8,9-tetrahydrobenzo[4,5]imidazo[1,2-a]pyridine-8-amine]
IC50 (Recombinant human DPP-IV): 0.9 nM

Cc1n[nH]c(-c2ccn3c4c(nc3c2)C[C@H](c2cc(F)c(F)cc2F)[C@@H](N)C4)n1 [Example 8, (7R,8S)-3-(3-methyl-1H-1,2,4-Triazol-5-yl)-7-(2,4,5-trifluorophenyl)-6,7,8,9-tetrahydrobenzo[4,5]imidazo[1,2-a]pyridine-8-amine]
IC50 (Recombinant human DPP-IV): 1.7 nM

Cn1ncnc1-c1ccn2c3c(nc2c1)C[C@H](c1cc(F)c(F)cc1F)[C@@H](N)C3 [Example 9, (7R,8S)-3-(1-Methyl-1H-1,2,4-triazol-5-yl)-7-(2,4,5-trifluorophenyl)-6,7,8,9-tetrahydrobenzo[4,5]imidazo[1,2-a]pyridine-8-amine]
IC50 (Recombinant human DPP-IV): 2 nM

N[C@H]1Cc2c(nc3cc(-c4nnn[nH]4)ccn23)C[C@@H]1c1cc(F)c(F)cc1F [Example 10, (7R,8S)-3-(1H-Tetrazol-5-yl)-7-(2,4,5-trifluorophenyl)-6,7,8,9-tetrahydrobenzo[4,5]imidazo[1,2-a]pyridin-8-amine]
IC50 (Recombinant human DPP-IV): 0.6 nM

N[C@H]1Cc2c(nc3cc(-c4n[nH]c(=O)o4)ccn23)C[C@@H]1c1cc(F)c(F)cc1F [Example 12, 5-((7R,8S)-8-Amino-7-(2,4,5-trifluorophenyl)-6,7,8,9-tetrahydrobenzo[4,5]imidazo[1,2-a]pyridin-3-yl)-1,3,4-oxadiazol-2(3H)-one]
activity at 1 mg/kg (DPP-4; [14]): 7.4 ± 1.2%
activity at 1 mg/kg (DPP-4; [15]): 7 ± 1.1%
activity at 1 mg/kg (DPP-4; [16]): 6.4 ± 1.9%
activity at 1 mg/kg (DPP-4; [17]): 10.5 ± 1.7%
activity at 1 mg/kg (DPP-4; [18]): 10.1 ± 1.2%
activity at 1 mg/kg (DPP-4; [19]): 15 ± 1.6%
activity at 1 mg/kg (DPP-4; [20]): 38.3 ± 5.6%
activity at 1 mg/kg (DPP-4; [1]): 7.4 ± 1.2%
activity at 1 mg/kg (DPP-4; [2]): 7 ± 1.1%
activity at 1 mg/kg (DPP-4; [3]): 6.4 ± 1.9%
activity at 1 mg/kg (DPP-4; [4]): 10.5 ± 1.7%
activity at 1 mg/kg (DPP-4; [5]): 10.1 ± 1.2%
activity at 1 mg/kg (DPP-4; [6]): 15 ± 1.6%
activity at 1 mg/kg (DPP-4; [7]): 38.3 ± 5.6%

Cn1nc(-c2ccn3c4c(nc3c2)C[C@H](c2cc(F)c(F)cc2F)[C@@H](N)C4)oc1=O [Example 13, 5-((7R,8S)-8-Amino-7-(2,4,5-trifluorophenyl)-6,7,8,9-tetrahydrobenzo[4,5]imidazo[1,2-a]pyridin-3-yl)-3-methyl-1,3,4-oxadiazol-2(3H)-one]
activity at 1 mg/kg (DPP-4; [14]): 8.5 ± 2.2%
activity at 1 mg/kg (DPP-4; [15]): 5 ± 1.7%
activity at 1 mg/kg (DPP-4; [16]): 7 ± 2.7%
activity at 1 mg/kg (DPP-4; [17]): 4.4 ± 2.3%
activity at 1 mg/kg (DPP-4; [18]): 6.1 ± 1.7%
activity at 1 mg/kg (DPP-4; [19]): 8.5 ± 1.3%
activity at 1 mg/kg (DPP-4; [20]): 20.2 ± 0.6%
activity at 1 mg/kg (DPP-4; [1]): 8.5 ± 2.2%
activity at 1 mg/kg (DPP-4; [2]): 5 ± 1.7%
activity at 1 mg/kg (DPP-4; [3]): 7 ± 2.7%
activity at 1 mg/kg (DPP-4; [4]): 4.4 ± 2.3%
activity at 1 mg/kg (DPP-4; [5]): 6.1 ± 1.7%
activity at 1 mg/kg (DPP-4; [6]): 8.5 ± 1.3%
activity at 1 mg/kg (DPP-4; [7]): 20.2 ± 0.6%

NC(=O)c1ccn2c3c(nc2c1)C[C@H](c1cc(F)c(F)cc1F)[C@@H](N)C3 [Refference 1, (7R,8S)-8-amino-7-(2,4,5-trifluorophenyl)-6,7,8,9-tetrahydrobenzo[4,5]imidazo[1,2-a]pyridine-3-carboxamide, reference compound]
activity at 1 mg/kg (DPP-4; Table 4 Test 1, mice plasma, 1 h after dosing): 20.5 ± 3%
activity at 1 mg/kg (DPP-4; Table 4 Test 1, mice plasma, 2 h after dosing): 18.1 ± 2.2%
activity at 1 mg/kg (DPP-4; Table 4 Test 1, mice plasma, 4 h after dosing): 19.9 ± 2%
activity at 1 mg/kg (DPP-4; Table 4 Test 1, mice plasma, 6 h after dosing): 25.3 ± 2%
activity at 1 mg/kg (DPP-4; Table 4 Test 1, mice plasma, 9 h after dosing): 33.3 ± 1.5%
activity at 1 mg/kg (DPP-4; Table 4 Test 1, mice plasma, 12 h after dosing): 49.5 ± 2.8%
activity at 1 mg/kg (DPP-4; Table 4 Test 1, mice plasma, 24 h after dosing): 90.7 ± 3.2%
activity at 1 mg/kg (DPP-4; [8]): 15.5 ± 1.1%
activity at 1 mg/kg (DPP-4; [9]): 16.5 ± 2%
activity at 1 mg/kg (DPP-4; [10]): 14.9 ± 2.9%
activity at 1 mg/kg (DPP-4; [11]): 23.3 ± 3.8%
activity at 1 mg/kg (DPP-4; [12]): 34.5 ± 2.7%
activity at 1 mg/kg (DPP-4; [13]): 91.1 ± 4.3%
activity at 1 mg/kg (DPP-4; [1]): 17.5 ± 1.4%
activity at 1 mg/kg (DPP-4; [2]): 17 ± 1.7%
activity at 1 mg/kg (DPP-4; [3]): 22 ± 2.1%
activity at 1 mg/kg (DPP-4; [4]): 33.2 ± 2.7%
activity at 1 mg/kg (DPP-4; [5]): 42.5 ± 2.2%
activity at 1 mg/kg (DPP-4; [6]): 58 ± 2.6%
activity at 1 mg/kg (DPP-4; [7]): 81.9 ± 7.4%
